What was measured:
cell proliferation = conditions: compared to rapamycin; Khaw et al., 1998; cited from earlier work
[1] = system: mixed lymphocyte reaction; conditions: Nishida et al., 1995; cited from earlier work
[2] = system: panel of human tumour cell lines; test: Monolayer proliferation assay, mean across the cell line panel; assay type: cell-based; conditions: average across the cell lines tested; estimated from concentration versus cell viability
Experimental: (§1) In vitro evaluation of compounds for anticancer activity in a panel of 12 human tumour cell lines in a monolayer proliferation assay were carried out at the Oncotest Testing Facility, Institute for Experimental Oncology, Oncotest GmbH, Freiburg.
(§2) The Oncotest cell lines were established from human tumor xenografts as described by Roth et al. 1999. The origin of the donor xenografts was described by Fiebig et al. 1992. Other cell lines were either obtained from the NCI (H460, SF-268, OVCAR-3, DU145, MDA-MB-231, MDA-MB-468) or purchased from DSMZ, Braunschweig, Germany (LNCAP).
(§3) All cell lines, unless otherwise specified, are grown at 37° C. in a humidified atmosphere (95% air, 5% CO2) in a ‘ready-mix’ medium containing RPMI 1640 medium, 10% fetal calf serum, and 0.1 mg/mL gentamicin (PAA, Cölbe, Germany).
(§4) A modified propidium iodide assay was used to assess the effects of the test compound(s) on the growth of twelve human tumor cell lines (Dengler et al., 1995).
(§5) Briefly, cells were harvested from exponential phase cultures by trypsinization, counted and plated in 96 well flat-bottomed microtitre plates at a cell density dependent on the cell line (5-10.000 viable cells/well). After 24 h recovery to allow the cells to resume exponential growth, 0.01 mL of culture medium (6 control wells per plate) or culture medium containing 39-desmethoxyrapamycin were added to the wells. Each concentration was plated in triplicate. 39-Desmethoxyrapamycin was applied in two concentrations (0.001 mM and 0.01 mM). Following 4 days of continuous incubation, cell culture medium with or without 39-desmethoxyrapamycin was replaced by 0.2 mL of an aqueous propidium iodide (PI) solution (7 mg/L). To measure the proportion of living cells, cells were permeabilized by freezing the plates. After thawing the plates, fluorescence was measured using the Cytofluor 4000 microplate reader (excitation 530 nm, emission 620 nm), giving a direct relationship to the total number of viable cells.
(§6) Growth inhibition was expressed as treated/control×100 (% T/C) and are provided for a selection of cell lines. […]

[3] = system: H460 (NCl-H460, lung) tumour cell line; test: Monolayer proliferation assay (modified propidium iodide), H460; assay type: cell-based, human; conditions: 4 days incubation, mean of duplicate experiments
Experimental: as §1, §2, §3, §4, §5
Growth inhibition was expressed as treated/control×100 (% T/C) and are provided for a selection of cell lines. For active compounds, the average IC50 & IC70 values across the entire cell line panel examined were estimated by plotting compound concentration versus cell viability and are also provided.
In vitro evaluation of 17-desmethyl-39-desmethoxyrapamycin for anticancer activity in a panel of 12 human tumour cell lines in a monolayer proliferation assay was carried out as described above using a modified propidium iodide assay.

[4] = system: 1138L (UXF 1138L, uterus) tumour cell line; test: Monolayer proliferation assay (modified propidium iodide), 1138L; assay type: cell-based, human; conditions: 4 days incubation, mean of duplicate experiments
Experimental: as §1, §2, §3, §4, §5, §6

[5] = system: 394NL (MEXF 394NL, melanoma) tumour cell line; test: Monolayer proliferation assay (modified propidium iodide), 394NL; assay type: cell-based, human; conditions: 4 days incubation, mean of duplicate experiments
Experimental: as §1, §2, §3, §4
as §5, with “39-Desmethoxyrapamycin was applied in two concentrations (0.001 mM and 0.01 mM).” left out
as §6

[6] = system: MCF7 (MCF-7, breast) tumour cell line; test: Monolayer proliferation assay (modified propidium iodide), MCF7; assay type: cell-based, human; conditions: 4 days incubation, mean of duplicate experiments
Experimental: as §1, §2, §3, §4, §5, §6

[7] = system: 251L (GXF 251L, gastric) tumour cell line; test: Monolayer proliferation assay (modified propidium iodide), 251L; assay type: cell-based, human; conditions: 4 days incubation, mean of duplicate experiments
Experimental: as §1, §2, §3, §4
as §5, with “39-Desmethoxyrapamycin was applied in two concentrations (0.001 mM and 0.01 mM).” left out
as §6

[8] = system: OVCAR3 (OVCAR-3, ovarian) tumour cell line; test: Monolayer proliferation assay (modified propidium iodide), OVCAR3; assay type: cell-based, human; conditions: 4 days incubation, mean of duplicate experiments
Experimental: as §1, §2, §3, §4, §5, §6

[9] = system: SF268 (SF-268, CNS) tumour cell line; test: Monolayer proliferation assay (modified propidium iodide), SF268; assay type: cell-based, human; conditions: 4 days incubation, mean of duplicate experiments
Experimental: as §1, §2, §3, §4, §5, §6

[10] = system: DU145 (prostate, PTEN positive) tumour cell line; test: Monolayer proliferation assay (modified propidium iodide), DU145; assay type: cell-based, human; conditions: 4 days incubation, mean of duplicate experiments
Experimental: as §1, §2, §3, §4, §5, §6

[11] = system: LNCAP (prostate, PTEN negative) tumour cell line; test: Monolayer proliferation assay (modified propidium iodide), LNCAP; assay type: cell-based, human; conditions: 4 days incubation, mean of duplicate experiments
Experimental: as §1, §2, §3, §4
as §5, with “39-Desmethoxyrapamycin was applied in two concentrations (0.001 mM and 0.01 mM).” left out
as §6

fungi = conditions: compared to rapamycin, cited from earlier work; for antifungal activities: Wong et al., 1998
FKBP12 PPlase = FKBP12 PPlase (Homo sapiens, UniProt P62942); conditions: compared to rapamycin; Box et al., 1995; cited from earlier work
murine splenic B cells = conditions: compared to rapamycin; Box et al., 1995; cited from earlier work
murine splenic T cells = conditions: compared to rapamycin; Box et al., 1995; cited from earlier work

Chain of FKBP12 PPlase (P62942 whole entry): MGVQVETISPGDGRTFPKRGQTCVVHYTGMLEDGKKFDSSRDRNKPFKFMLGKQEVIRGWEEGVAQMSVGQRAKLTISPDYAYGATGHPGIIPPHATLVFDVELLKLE

In the case of `CO[C@H]1C[C@@H]2CC[C@@H](C)[C@@](O)(O2)C(=O)C(=O)N2CC(O)C[C@H]2C(=O)O[C@H]([C@H](C)C[C@@H]2CC[C@@H](O)[C@H](OC)C2)CC(=O)[C@H](C)/C=C(\C)[C@@H](O)CC(=O)[C@H](C)C[C@H](C)/C=C/C=C/C=C/1C` (stereo partly shown) [4-hydroxyprolyl-26-desmethoxy-rapamycin], the “inhibitory activity in proliferation assays” value (cell proliferation) is listed as “significantly less than that of rapamycin”.
For `CO[C@H]1C[C@@H]2CC[C@@H](C)[C@](O)(CC(=O)N3CCCC[C@H]3C(=O)O[C@H]([C@H](C)C[C@@H]3CC[C@@H](O)[C@H](OC)C3)CC(=O)[C@H](C)/C=C(\C)[C@@H](O)[C@@H](OC)C(=O)[C@H](C)C[C@H](C)/C=C/C=C/C=C/1C)O2` [9-deoxorapamycin], the “mixed lymphocyte reaction (MLR) inhibitory activity” value [1] is listed as “more significant decrease in activity”.
For `CO[C@@H]1/C=C/C=C/C=C/[C@@H](C)C[C@@H](C)C(=O)[C@H](OC)[C@H](O)/C(C)=C/[C@@H](C)C(=O)C[C@@H]([C@H](C)C[C@H]2CC[C@H](O)CC2)OC(=O)[C@@H]2CCCCN2C(=O)C(=O)[C@]2(O)O[C@@H](CC[C@H]2C)C1` [17-desmethyl-39-desmethoxyrapamycin], the IC50 [2] was 13.3 µM, the “Mean IC70” value [2] was 38.2 µM and the “Test/Control (%) at drug concentration” value ([3]; 1 μM) was 82%. For the same molecule, the “Test/Control (%) at drug concentration” value ([3]; 10 μM) was 76%, the “Test/Control (%) at drug concentration” value ([3]; 100 μM) was 3% and the “Test/Control (%) at drug concentration” value ([4]; 1 μM) was 59%. For the same molecule, the “Test/Control (%) at drug concentration” value ([4]; 10 μM) was 46%, the “Test/Control (%) at drug concentration” value ([4]; 100 μM) was 5% and the “Test/Control (%) at drug concentration” value ([5]; 1 μM) was 66%. The “Test/Control (%) at drug concentration” value ([5]; 10 μM) was 61%, the “Test/Control (%) at drug concentration” value ([5]; 100 μM) was 4% and the “Test/Control (%) at drug concentration” value ([6]; 1 μM) was 59%. For the same molecule, the “Test/Control (%) at drug concentration” value ([6]; 10 μM) was 52%, the “Test/Control (%) at drug concentration” value ([6]; 100 μM) was 8% and the “Test/Control (%) at drug concentration” value ([7]; 1 μM) was 85%. For the same molecule, the “Test/Control (%) at drug concentration” value ([7]; 10 μM) was 89%, the “Test/Control (%) at drug concentration” value ([7]; 100 μM) was 16% and the “Test/Control (%) at drug concentration” value ([8]; 1 μM) was 84%. The “Test/Control (%) at drug concentration” value ([8]; 10 μM) was 61%, the “Test/Control (%) at drug concentration” value ([8]; 100 μM) was 8% and the “Test/Control (%) at drug concentration” value ([9]; 1 μM) was 57%. For the same molecule, the “Test/Control (%) at drug concentration” value ([9]; 10 μM) was 37%, the “Test/Control (%) at drug concentration” value ([9]; 100 μM) was 4% and the “Test/Control (%) at drug concentration” value ([10]; 1 μM) was 69%. For the same molecule, the “Test/Control (%) at drug concentration” value ([10]; 10 μM) was 66%, the “Test/Control (%) at drug concentration” value ([10]; 100 μM) was 5% and the “Test/Control (%) at drug concentration” value ([11]; 1 μM) was 59%. The “Test/Control (%) at drug concentration” value ([11]; 10 μM) was 43% and the “Test/Control (%) at drug concentration” value ([11]; 100 μM) was 15%.
In the case of `CO[C@H]1C[C@@H]2CC[C@@H](C)[C@@](O)(O2)C(=O)C(=O)N2CCCC[C@H]2C(=O)O[C@H]([C@H](C)C[C@@H]2CC[C@@H](O)[C@H](OC)C2)CC(=O)[C@H](C)/C=C(\C)[C@@H](O)[C@@H](O)C(=O)[C@H](C)C[C@H](C)/C=C/C=C/C=C/1C` [27-O-desmethylrapamycin], the antifungal activity (fungi; Box et al., 1995) is given as “lower than that of rapamycin”, the antifungal activities (fungi) is given as “lower than that of rapamycin” and the “inhibition of FKBP12 PPlase activity” value (FKBP12 PPlase) is given as “seemed to be increased”. The “inhibition of LPS-stimulated proliferation of murine splenic B cells” value (murine splenic B cells) was “decreased when compared to rapamycin” and the “inhibition of ConA-stimulated proliferation of murine splenic T cells” value (murine splenic T cells) was “decreased when compared to rapamycin”.
In the case of `CO[C@H]1C[C@@H]2CC[C@@H](C)[C@@](O)(O2)C(=O)C(=O)N2CCCC[C@H]2C(=O)O[C@H]([C@H](C)C[C@@H]2CC[C@@H](O)[C@H](OC)C2)CC(=O)[C@H](C)/C=C(\C)[C@@H](O)CC(=O)[C@H](C)C[C@H](C)/C=C/C=C/C=C/1C` [27-desmethoxyrapamycin], the antifungal activities (fungi) is listed as “lower than that of rapamycin”.
With `CO[C@H]1C[C@@H]2CC[C@@H](C)[C@@](O)(O2)C(=O)C(=O)N2CCCC[C@H]2C(=O)O[C@H]([C@H](C)C[C@@H]2CC[C@@H](O)[C@H](OC)C2)CC(=O)[C@H](C)/C=C(\C)[C@@H](O)[C@@H](OC)C(=O)[C@H](C)C[C@H](C)/C=C/C=C/C=C/1C` [Rapamycin, reference compound] the “Mean IC70” value [2] was 9.1 µM and the “Test/Control (%) at drug concentration” value ([3]; 10 μM) was 66%.
In the case of `COC1CC2CCC(C)C(O)(O2)C(=O)C(=O)N2CCCC2C(=O)OC(C(C)CC2CCC(O)C(OC)C2)CC(=O)C(C)/C=C(\C)C(O)C(OC)C(=O)C(C)CC(C)/C=C/C=C/C=C/1C` (stereo not shown) [prolylrapamycin], the antifungal activities (fungi) is given as “lower than that of rapamycin”.

Reference: US7803808B2, “Production of polyketides and other natural products” (Wyeth LLC, priority 2004, dated 2010)
